What was measured:
Type in all cases: in vivo
[1] = tested on: pigweed (Amaranthus retroflexus); experiment: Test A postemergence, visual injury rating
In short: (§1)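 Greenhouse pot test, loam/sand soil. Formulation: non-phytotoxic solvent mix plus surfactant. Pre: directed spray onto soil after sowing. Post: plants at 1–2 leaf, 2–10 cm. Rated visually vs untreated controls at ~10 d, 0 (no effect) to 100 (complete control).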

[2] = tested on: blackgrass (Alopecurus myosuroides); experiment: Test A postemergence, visual injury rating
In short: as §1

[3] = tested on: wheat (Triticum aestivum); experiment: Test A postemergence, visual injury rating
In short: as §1

kochia (Kochia scoparia) [4] = experiment: Test A postemergence, visual injury rating
In short: as §1

[5] = tested on: giant foxtail (Setaria faberii); experiment: Test A postemergence, visual injury rating
In short: as §1

[6] = tested on: Italian ryegrass (Lolium multiflorum); experiment: Test A postemergence, visual injury rating
In short: as §1

[7] = tested on: barnyardgrass (Echinochloa crus-galli); experiment: Test A postemergence, visual injury rating; settings: 0 is no effect, 100 is complete control; for Barnyardgrass plant response rating: 0 to 100 scale, approximately 10 days
In short: as §1

corn (Zea mays) = experiment: Test A postemergence, visual injury rating
In short: as §1

[8] = tested on: galium (catchweed bedstraw, Galium aparine); experiment: Test A postemergence, visual injury rating
In short: as §1

[9] = tested on: ragweed (common ragweed, Ambrosia elatior); experiment: Test A postemergence, visual injury rating
In short: as §1

[10] = tested on: ducksalad (Heteranthera limosa); experiment: Test B flooded paddy test, plant response rating; settings: 250 g ai/ha, Flood, scale of 0 to 100 where 0 is no effect and 100 is complete control, 13 to 15 days
In short: (§2)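 Pots were flooded to 3 cm above the soil surface at treatment, compound applied directly to the paddy water, and that depth held throughout. Plants were kept in a greenhouse for 13 to 15 days, then visually rated against untreated controls.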

rice (Oryza sativa) = experiment: Test B flooded paddy test, plant response rating; settings: 250 g ai/ha, Flood, scale of 0 to 100 where 0 is no effect and 100 is complete control, 13 to 15 days
In short: as §2

[11] = tested on: barnyardgrass (Echinochloa crus-galli); experiment: Test B flooded paddy test, plant response rating; settings: 250 g ai/ha, Flood, scale of 0 to 100 where 0 is no effect and 100 is complete control, 13 to 15 days
In short: as §2

[12] = tested on: sedge, umbrella (small-flower umbrella sedge, Cyperus difformis); experiment: Test B flooded paddy test, plant response rating; settings: 250 g ai/ha, Flood, scale of 0 to 100 where 0 is no effect and 100 is complete control, 13 to 15 days
In short: as §2

[13] = tested on: pigweed (Amaranthus retroflexus); experiment: Test A preemergence, visual injury rating
In short: as §1

kochia (Kochia scoparia) [14] = experiment: Test A preemergence, visual injury rating
In short: as §1

[15] = tested on: giant foxtail (Setaria faberii); experiment: Test A preemergence, visual injury rating
In short: as §1

[16] = tested on: Italian ryegrass (Lolium multiflorum); experiment: Test A preemergence, visual injury rating
In short: as §1

[17] = tested on: barnyardgrass (Echinochloa crus-galli); experiment: Test A preemergence, visual injury rating
In short: as §1

[18] = tested on: ragweed (common ragweed, Ambrosia elatior); experiment: Test A preemergence, visual injury rating
In short: as §1

[19] = 31 g ai/ha, 0 to 100 scale, 0 is no effect, 100 is complete control, approximately 10 days
[20] = 31 g ai/ha, 0 to 100 scale, 0 no effect, 100 complete control
[21] = 31 g ai/ha, 0 to 100 scale (0 no effect, 100 complete control)
[22] = 125 g ai/ha, 0 to 100 scale, 0 is no effect, 100 is complete control, approximately 10 days
[23] = 125 g ai/ha, 0 to 100 scale (0 no effect, 100 complete control)

In the case of `Cc1ccc(Oc2ncc(Cl)cn2)c(C(=O)OCCC(F)(F)F)c1` [Compound 54], the “Pigweed plant response rating” value [1, 19] is reported as 0, the pest or weed control at 125 g/ha ([1]; Amaranthus retroflexus, post-emergence, 240 h, 125 g ai/ha, 0 is no effect, 100 is complete control, read-out: Pigweed plant response rating (0 to 100 scale)) is reported as 0% and the “Blackgrass plant response rating” value [2, 19] is reported as 0. For the same compound, the pest or weed control at 125 g/ha ([2]; Alopecurus myosuroides, post-emergence, 240 h, 125 g ai/ha, 0 is no effect, 100 is complete control, read-out: Blackgrass plant response rating (0 to 100 scale)) was 0%, the “Wheat plant response rating” value [3, 19] was 0 and the plant injury at 125 g/ha ([3]; Triticum aestivum, post-emergence, 240 h, 125 g ai/ha, 0 is no effect, 100 is complete control, read-out: Wheat plant response rating (0 to 100 scale)) was 0%. For the same compound, the “Kochia plant response rating” value (kochia (Kochia scoparia) [4]; [19]) was 0, the pest or weed control at 125 g/ha (kochia (Kochia scoparia) [4]; Bassia scoparia, post-emergence, 240 h, 125 g ai/ha, 0 is no effect, 100 is complete control, read-out: Kochia plant response rating (0 to 100 scale)) was 0% and the “Foxtail, Giant plant response rating” value [5, 19] was 0. For the same compound, the pest or weed control at 125 g/ha ([5]; Setaria faberi, post-emergence, 240 h, 125 g ai/ha, 0 is no effect, 100 is complete control, read-out: Foxtail, Giant plant response rating (0 to 100 scale)) was 0%, the “Ryegrass, Italian plant response rating” value [6, 19] was 0 and the pest or weed control at 125 g/ha ([6]; Lolium multiflorum, post-emergence, 240 h, 125 g ai/ha, 0 is no effect, 100 is complete control, read-out: Ryegrass, Italian plant response rating (0 to 100 scale)) was 0%. For the same compound, the “Barnyardgrass plant response rating” value ([7]; 31 g ai/ha) was 0, the pest or weed control at 125 g/ha ([7]; Echinochloa crus-galli, post-emergence, 240 h, 125 g ai/ha, read-out: Barnyardgrass plant response rating (0 to 100 scale)) was 0% and the “Corn plant response rating” value (corn (Zea mays); [19]) was 0. For the same compound, the plant injury at 125 g/ha (corn (Zea mays); Zea mays, post-emergence, 240 h, 125 g ai/ha, 0 is no effect, 100 is complete control, read-out: Corn plant response rating (0 to 100 scale)) was 0%, the “Galium plant response rating” value [8, 19] was 0 and the pest or weed control at 125 g/ha ([8]; Galium, post-emergence, 240 h, 125 g ai/ha, 0 is no effect, 100 is complete control, read-out: Galium plant response rating (0 to 100 scale)) was 0%. For the same compound, the “Ragweed plant response rating” value [9, 19] was 0, the pest or weed control at 125 g/ha ([9]; Ambrosia artemisiifolia, post-emergence, 240 h, 125 g ai/ha, 0 is no effect, 100 is complete control, read-out: Ragweed plant response rating (0 to 100 scale)) was 0% and the pest or weed control at 250 g/ha ([10]; Heteranthera limosa, 312 h) was 0%. The plant injury at 250 g/ha (rice (Oryza sativa); Oryza sativa, 312 h) was 0%, the pest or weed control at 250 g/ha ([11]; Echinochloa crus-galli, 312 h) was 0% and the pest or weed control at 250 g/ha ([12]; Cyperus difformis, 312 h) was 0%. For the same compound, the “Plant response rating, Pigweed” value [13, 20] was 0, the pest or weed control at 125 g/ha ([13]; Amaranthus retroflexus, pre-emergence, 240 h, 125 g ai/ha, 0 to 100 scale (0 no effect, 100 complete control), read-out: Pigweed plant response rating) was 0% and the “Plant response rating, Kochia” value (kochia (Kochia scoparia) [14]; [20]) was 0. The pest or weed control at 125 g/ha (kochia (Kochia scoparia) [14]; Bassia scoparia, pre-emergence, 240 h, 125 g ai/ha, 0 to 100 scale (0 no effect, 100 complete control), read-out: Kochia plant response rating) was 0%, the “Plant response rating, Foxtail, Giant” value [15, 20] was 0 and the pest or weed control at 125 g/ha ([15]; Setaria faberi, pre-emergence, 240 h, 125 g ai/ha, 0 to 100 scale (0 no effect, 100 complete control), read-out: Foxtail, Giant plant response rating) was 0%. For the same compound, the “Plant response rating, Ryegrass, Italian” value [16, 20] was 0, the pest or weed control at 125 g/ha ([16]; Lolium multiflorum, pre-emergence, 240 h, 125 g ai/ha, 0 to 100 scale (0 no effect, 100 complete control), read-out: Ryegrass, Italian plant response rating) was 0% and the “Plant response rating, Barnyardgrass” value [17, 20] was 0. The pest or weed control at 125 g/ha ([17]; Echinochloa crus-galli, pre-emergence, 240 h, 125 g ai/ha, 0 to 100 scale (0 no effect, 100 complete control), read-out: Barnyardgrass plant response rating) was 0%, the “Plant response rating, Ragweed” value [18, 20] was 0 and the pest or weed control at 125 g/ha ([18]; Ambrosia artemisiifolia, pre-emergence, 240 h, 125 g ai/ha, 0 to 100 scale (0 no effect, 100 complete control), read-out: Ragweed plant response rating) was 0%.
With `N#Cc1cccc(Oc2ncc(Cl)cn2)c1COCC(F)(F)C(F)(F)F` [Compound 132] the “Pigweed plant response rating” value [1, 21] was 60, the “Pigweed plant response rating” value [1, 22] was 90 and the “Blackgrass plant response rating” value [2, 21] was 0. The “Blackgrass plant response rating” value [2, 22] was 30, the “Wheat plant response rating” value [3, 21] was 0 and the “Wheat plant response rating” value [3, 22] was 20. For the same compound, the “Kochia plant response rating” value (kochia (Kochia scoparia) [4]; [21]) was 40, the “Kochia plant response rating” value (kochia (Kochia scoparia) [4]; [22]) was 70 and the “Foxtail, Giant plant response rating” value [5, 21] was 30. For the same compound, the “Foxtail, Giant plant response rating” value [5, 22] was 50, the “Ryegrass, Italian plant response rating” value [6, 21] was 0 and the “Ryegrass, Italian plant response rating” value [6, 22] was 0. For the same compound, the “Barnyardgrass plant response rating” value ([7]; 31 g ai/ha) was 30, the “Barnyardgrass plant response rating” value ([7]; 125 g ai/ha) was 50 and the “Corn plant response rating” value (corn (Zea mays); [21]) was 20. For the same compound, the “Corn plant response rating” value (corn (Zea mays); [22]) was 30, the “Galium plant response rating” value [8, 21] was 20 and the “Galium plant response rating” value [8, 22] was 60. For the same compound, the “Ragweed plant response rating” value [9, 21] was 0, the “Ragweed plant response rating” value [9, 22] was 0 and the “Plant response rating, Ducksalad” value [10] was 90. The “Plant response rating, Rice” value (rice (Oryza sativa)) was 45, the “Plant response rating, Barnyardgrass” value [11] was 45 and the “Plant response rating, Sedge, Umbrella” value [12] was 80. The “Plant response rating, Pigweed” value [13, 20] was 70, the “Plant response rating, Pigweed” value [13, 23] was 100 and the “Plant response rating, Kochia” value (kochia (Kochia scoparia) [14]; [20]) was 10. The “Plant response rating, Kochia” value (kochia (Kochia scoparia) [14]; [23]) was 60, the “Plant response rating, Foxtail, Giant” value [15, 20] was 40 and the “Plant response rating, Foxtail, Giant” value [15, 23] was 100. For the same compound, the “Plant response rating, Ryegrass, Italian” value [16, 20] was 0, the “Plant response rating, Ryegrass, Italian” value [16, 23] was 30 and the “Plant response rating, Barnyardgrass” value [17, 20] was 30. For the same compound, the “Plant response rating, Barnyardgrass” value [17, 23] was 100, the “Plant response rating, Ragweed” value [18, 20] was 0 and the “Plant response rating, Ragweed” value [18, 23] was 0.
`O=C(OCC(F)(F)C(F)F)c1c(Br)cccc1Oc1ncc(Cl)cn1` [Compound 103] was tested, and the “Pigweed plant response rating” value [1, 19] was 90, the “Pigweed plant response rating” value [1, 22] was 100 and the “Blackgrass plant response rating” value [2, 19] was 0. For the same compound, the “Blackgrass plant response rating” value [2, 22] was 10, the “Wheat plant response rating” value [3, 19] was 0 and the “Wheat plant response rating” value [3, 22] was 0. For the same compound, the “Kochia plant response rating” value (kochia (Kochia scoparia) [4]; [19]) was 70, the “Kochia plant response rating” value (kochia (Kochia scoparia) [4]; [22]) was 100 and the “Foxtail, Giant plant response rating” value [5, 19] was 10. The “Foxtail, Giant plant response rating” value [5, 22] was 70, the “Ryegrass, Italian plant response rating” value [6, 19] was 0 and the “Ryegrass, Italian plant response rating” value [6, 22] was 0. The “Barnyardgrass plant response rating” value ([7]; 31 g ai/ha) was 0, the “Barnyardgrass plant response rating” value ([7]; 125 g ai/ha) was 30 and the “Corn plant response rating” value (corn (Zea mays); [19]) was 20. For the same compound, the “Corn plant response rating” value (corn (Zea mays); [22]) was 20, the “Galium plant response rating” value [8, 19] was 70 and the “Galium plant response rating” value [8, 22] was 100. The “Ragweed plant response rating” value [9, 19] was 0, the “Ragweed plant response rating” value [9, 22] was 0 and the “Plant response rating, Ducksalad” value [10] was 95. For the same compound, the “Plant response rating, Rice” value (rice (Oryza sativa)) was 20, the “Plant response rating, Barnyardgrass” value [11] was 0 and the “Plant response rating, Sedge, Umbrella” value [12] was 95. The “Plant response rating, Pigweed” value [13, 20] was 40, the “Plant response rating, Pigweed” value [13, 23] was 100 and the “Plant response rating, Kochia” value (kochia (Kochia scoparia) [14]; [20]) was 0. For the same compound, the “Plant response rating, Kochia” value (kochia (Kochia scoparia) [14]; [23]) was 70, the “Plant response rating, Foxtail, Giant” value [15, 20] was 10 and the “Plant response rating, Foxtail, Giant” value [15, 23] was 60. For the same compound, the “Plant response rating, Ryegrass, Italian” value [16, 20] was 0, the “Plant response rating, Ryegrass, Italian” value [16, 23] was 0 and the “Plant response rating, Barnyardgrass” value [17, 20] was 0. For the same compound, the “Barnyardgrass plant response rating” value [17, 23] was 50, the “Plant response rating, Ragweed” value [18, 20] was 0 and the “Plant response rating, Ragweed” value [18, 23] was 0.
